# Test results taken from paper PMC3441526, “KCN1, a Novel Synthetic Sulfonamide Anticancer Agent: In Vitro and In Vivo Anti-Pancreatic Cancer Activities and Preclinical Pharmacology” (PLoS ONE, 2012).
# Assay: Plasma protein binding assay (ultrafiltration)
# Type: in vitro ADME
# Conditions: mouse plasma
# Procedure: The extent to which KCN1 was bound by mouse plasma proteins was assessed by a previously described method involving the use of a micro-ultrafiltration system. Samples of mouse plasma containing KCN1 at concentrations of 1.0 and 10 µM were maintained at 37°C for 1 h. Controls were prepared using methanol in place of plasma. From each of these preparations, a portion was taken and placed in a sample reservoir of an Amicon Centrifree® ultrafiltration system (Millipore Co., Bedford, MA). The filter systems were centrifuged at 2,000 × g until the reservoirs were dry. From each sample, triplicate portions were taken for analysis by HPLC. The amounts present in the filtrate were designated as “free drug” (F). The concentrations of the unfiltered solutions were also determined by triplicate analyses. This amount represented the “total drug” concentration (T). The amount bound to the filter (X) was also considered. The percentage of KCN1 bound to plasma proteins was calculated by the following formula: % bound = [(T-F-X)/T]×100.
compound,measurement,setting,value
"COc1ccc(S(=O)(=O)N(Cc2ccc3c(c2)C=CC(C)(C)O3)c2ccccc2)cc1OC [KCN1, 3,4-dimethoxy-N-[(2,2-dimethyl-2H-chromen-6-yl)methyl]-N-phenylbenzenesulfonamide]",binding to plasma proteins,1.0 µM,90.96%
same,binding to plasma proteins,10.0 µM,99.32%
